In patent US9133146B2, “Benzodioxane inhibitors of leukotriene production” (Boehringer Ingelheim International GmbH, priority 2011, dated 2015):

tested on: synthesis of LTB4 in human whole blood; assay: human whole blood (HWB) assay, LTB4 production inhibition after calcimycin; type: cell-based; conditions: heparinized human whole blood, calcimycin 20 μM, 37° C., plasma LTB4
Description: The compounds of the invention are additionally tested in a human whole blood (HWB) assay to determine their ability to inhibit the synthesis of LTB4 in a cellular system. Compounds are combined with heparinized human whole blood and incubated for 15 minutes at 37° C. Calcimycin (20 μM final, prepared in phosphate-buffered saline, pH 7.4) is then added and the mixture is incubated for another 30 minutes at 37° C. The samples are centrifuged for 5 min at low speed (1500×g) and the plasma layer is removed. Plasma LTB4 concentrations are then measured using an antibody-based homogenous time-resolved fluorescence method (CisBio, Bedford, Mass.). In general, the preferred potency range (IC50) of compounds in the HWB assay is between 10 nM to 10 μM, the more preferred potency range is 10 nM to 1 μM, and the most preferred potency range is 10 nM to 100 nM.

Row | IC50 [µM] | Compound
1 | 0.285 | O[C@@H]1CCN(Cc2ccc(C3COc4ccccc4O3)cc2)C1 (mixture of isomers) [Example 9, (3S)-1-[4-(2,3-dihydro-1,4-benzodioxin-2-yl)benzyl]pyrrolidin-3-ol]
2 | 0.305 | c1ccc2c(c1)OC[C@H](c1ccc(CN3CCC[C@H]4CCCCC43)cc1)O2 (stereo in doubt) [Example 85, (4aR,8aS)-1-{4-[(2S)-2,3-dihydro-1,4-benzodioxin-2-yl]benzyl}decahydroquinoline]
3 | 0.0911 | CC(C)(O)C(=O)NC1CCN(Cc2ccc([C@H]3COc4ccccc4O3)cc2)CC1 [Example 220, N-(1-{4-[(2S)-2,3-dihydro-1,4-benzodioxin-2-yl]benzyl}piperidin-4-yl)-2-hydroxy-2-methylpropanamide]

Row | Compound | IC50 [µM]
4 | c1cnc2c(c1)OC[C@H](c1ccc(CN3[C@H]4CC[C@@H]3CC4)cc1)O2 [Example 145, (3S)-3-{4-[(1s,4s)-7-azabicyclo[2.2.1]hept-7-ylmethyl]phenyl}-2,3-dihydro[1,4]dioxino[2,3-b]pyridine] | 0.0284
